Entries after “also recorded” stand apart in the source; their conditions may differ.
Tests used:
[1] = test system: ROS 17/2.8 osteosarcoma lung metastases; experiment: Treatment of osteosarcoma pulmonary metastasis by intravenous Ad-OC-TK; assay type: in vivo, nude mice
Method: Athymic Balb/c (nu/nu) mice at 5 to 6 weeks were purchased from Harlan Co. (Houston, Tex.). […] All mice were maintained in facilities approved by the American Association of Accreditation of Laboratory Animal Care, and all animal studies were conducted in accordance with the principles and procedures outlined in the NIH Guide for the Care and Use of Laboratory Animals.
The osteosarcoma pulmonary metastasis model was established as described above. Ad-OC-TK (5×10^8 PFU per 50 μl) was injected via tail vein twice, at day 7 and 14, after ROS 17/2.8 injection. Daily acyclovir intra peritoneal administration (40 mg/kg body weight) started at day 6 after ROS 17/2.8 tumor cell inoculation and continued for 15 days. All animals were sacrificed and examined on day 25. The lungs were removed, photographed, and weighed, and the metastatic deposits were observed under a low-powered (20×) stereo microscope. Histomorphologic observations were made in all specimens according to a standard procedure. Student's t-test was employed to analyze the statistical significance of differences among control and treatment groups.
We next tested the therapeutic efficacy of intravenous Ad-OC-TK gene therapy for the treatment of osteosarcoma lung metastases. Twenty mice bearing ROS 17/2.8 tumor lung metastases were treated with either PBS (control), Ad-OC-TK alone, ACV alone, or Ad-OC-TK plus ACV. Animals were sacrificed and analyzed on day 25 after ROS 17/2.8 inoculation. Tumor nodules on the lung surface were counted with stereo-optic magnification and the lung wet weights were measured, and all the lung specimens were subjected to histological analysis.

[2] = test system: ROS 17/2.8 osteosarcoma lung metastases; experiment: Long term survival study of mice bearing osteosarcoma lung metastases; assay type: in vivo, nude mice; settings: generalized Wilcoxon test, 0.005<p<0.01 for combination
Method: The end-points of the long term survival study are: animal death or sacrifice upon request by animal care takers because of excessive tumor burden causing animal distress, lethargy, ruffled fur or weight loss. The survival rate of the animals was analyzed by the Kaplan-Meier survival curve. The statistical significance of this study was analyzed with the generalized Wilcoxon test.^18
Twenty-six mice were inoculated with ROS 17/2.8 tumor cells as described above. Animals received either PBS, Ad-OC-TK alone, ACV alone, or Ad-OC-TK plus ACV and survivals were compared. […] Mean survival time was 27.1±2.9 days for the control animals and 36.6±5.8 days for the Ad-OC-TK plus ACV-treated animals (FIG. 6).
FIG. 6. Survival of animals receiving Ad-OC-TK/ACV treatment. Animals bearing osteosarcoma lung metastases were treated with PBS (6 animals), ACV (6 animals), Ad-OC-TK (6 animals), or Ad-OC-TK/ACV (8 animals) as described above. The survival study end-points were animal death or sacrifice per request by animal care personnel for distress, as evidenced by lethargy, ruffled fur or weight loss.

SMILES: Nc1nc2c(ncn2COCCO)c(=O)[nH]1 [ACV, acyclovir]
- size of pulmonary metastases (histology) ([1]; day 25, compared with PBS-treated specimens): No statistical difference; also recorded: massive pulmonary metastatic tumor nodules
- number of metastatic tumor nodules on the lung surface ([1]; day 25 after ROS 17/2.8 inoculation, Ad-OC-TK 5×10^8 PFU tail vein day 7 and 14, ACV 40 mg/kg i.p. daily for 15 days, p<0.0001 for combination vs PBS): No statistical difference; also recorded: no significant differences
- lung wet weight ([1]; day 25 after ROS 17/2.8 inoculation, same regimen, p=0.0005 for combination vs PBS): no significant differences
- survival compared with controls [2]: No obvious difference in survival
